# “Also recorded” adds a separate entry of the source.
# Experiments:
# Assay type in all cases: cell-based, human
# U-2/DOXO 35 cells = experiment: Cell proliferation under doxorubicin treatment, MDR1 gene-introduced cells; conditions: U-2/DOXO 35 (MDR1 gene introduced), 450 ng/mL doxorubicin
# Description: (§1) The effect on cell proliferation in the presence of 450 ng/mL of the anticancer agent doxorubicin was examined.
# RB1CC1 gene [1] = experiment: Northern blot of RB1CC1 gene expression after doxorubicin, U-2 OS/DX580 cells; conditions: U-2 OS/DX580 MDR variants, doxorubicin treatment
# Description: (§2) Expression levels of RB1CC1 gene and MDR1 gene in parental U2 OS cells and several kinds of MDR-variant cells were analyzed by Northern blotting. A probe hybridizing between nucleotide numbers 4190 and 4654 of the RB1CC1 gene sequence was used as a probe for analysis of RB1CC1 gene, and a probe hybridizing between nucleotide numbers 834 and 1119 of MDR1 gene was used for MDR1 gene. Probes were used after labeling with α-32P-dCTP in which phosphorus at an alpha position of […] was substituted with a radioactive isotope. Glyceraldehyde-3-phosphate dehydrogenase (GAPDH) was used as the indicator of mRNA expression.
# (§3) mRNA expression levels of cells that were obtained over time in the above-mentioned experiment were analyzed. Analysis was conducted for the novel gene RB1CC1 gene of the present invention, the RB1 gene and the MDR1 gene, respectively, in the same manner as Example 3 with the exception that expression levels of the RB1 gene were detected using a probe hybridizing to the site at nucleotides 336 to 675 of the nucleotide sequence of human RB1 mRNA. […] In contrast, in MDR variants of U-2 OS cells (U-2 OS/DX580) and U-2 OS cells introduced with MDR1 gene (U-2/DOXO 35), expression level of RB1CC1 gene was not inhibited by treatment with doxorubicin, and expression of RB1CC1 gene increased. […]
# RB1CC1 gene [2] = experiment: Northern blot of RB1CC1 gene expression after doxorubicin, U-2/DOXO 35 cells; conditions: U-2/DOXO 35 (MDR1 gene introduced), doxorubicin treatment
# Description: as §2, §3
# RB1CC1 gene [3] = experiment: Northern blot of RB1CC1 gene expression after doxorubicin, U-2/Neo8 cells; conditions: U-2/Neo8 control cells, doxorubicin treatment, over time
# Description: as §2, §3
# U-2 OS/DX580 cells = experiment: Cell proliferation under doxorubicin treatment, MDR variant cells; conditions: U-2 OS/DX580 MDR variants, 450 ng/mL doxorubicin
# Description: as §1
# U-2/Neo8 cells = experiment: Cell proliferation under doxorubicin treatment, control gene-introduced cells; conditions: U-2/Neo8 control cells
# Description: as §1
# RB1CC1 gene [4] = experiment: Northern blot of RB1CC1 gene expression after doxorubicin, parental U-2 OS cells; conditions: doxorubicin treatment, over time
# Description: as §2, §3
# U-2 OS cells = experiment: Cell proliferation under doxorubicin treatment, parental cells; conditions: parental U-2 OS cells
# Description: as §1
compound,measurement,setting,value
COc1cccc2c1C(=O)c1c(O)c3c(c(O)c1C2=O)C[C@@](O)(C(=O)CO)C[C@@H]3O[C@H]1C[C@H](N)[C@H](O)[C@H](C)O1 [doxorubicin],effect on cell proliferation,U-2/DOXO 35 cells,had no effect
same,expression of the RB1CC1 gene (mRNA),RB1CC1 gene [1],did not exhibit an inhibitory effect; also recorded: not inhibited
same,expression of the RB1CC1 gene (mRNA),RB1CC1 gene [2],increased; also recorded: not inhibited
same,expression of the RB1CC1 gene (mRNA),RB1CC1 gene [3],lowered expression; also recorded: decreased over time
same,effect on cell proliferation,U-2 OS/DX580 cells,did not exhibit an inhibitory effect; also recorded: had no effect
same,effect on cell proliferation,U-2/Neo8 cells; 450 ng/mL doxorubicin,suppressed
same,cell death,U-2/Neo8 cells; doxorubicin treatment,induced cell death
same,expression of the RB1CC1 gene (mRNA),RB1CC1 gene [4],lowered expression; also recorded: decreased over time
same,effect on cell proliferation,U-2 OS cells; 450 ng/mL doxorubicin,suppressed
same,cell death,U-2 OS cells; doxorubicin treatment,induced cell death
